Measured values as given in patent US4611001A, “Antimycotic pyrazolotetrathiepins” (E. I. Du Pont de Nemours and Company, priority 1985, dated 1986).
Values after ≈ are worked out from the molar mass of the structure shown.

Legend:
[1] = system: Candida albicans (CAND-1); test: Protocol 4: microtiter broth dilution MIC, Yeast Nitrogen Base broth pH 7.0; type: cell-based, Candida albicans ATCC 11651; conditions: for MIC: Candida albicans, read-out: MIC CAND-1 of standards
Source text: (§1) The fused pyrazolotetrathiepins of the invention are useful as antimycotic agents. The data is a result of different state of the art protocols, which employ either agar dilution or microtiter broth dilution techniques.
(§2) The test organisms used are two yeasts, Candida albicans ATCC 11651 (CAND-1), C. albicans ATCC e10231 (CAND-2) and two dermatophyte strains. Microsporum gypseum ATCC e9083 (MICRO-1) and Trichophyton rubrum ATCC 18756 (TRICH-1). These organisms are standardized to a concentration of 10^7 organisms/mL, aliquoted and frozen at -70°.
(§3) The compounds are dissolved in dimethyl sulfoxide (DMSO) and tested at specific concentrations required for the particular assay.
(§4) Appropriate standards are included with each assay. Their minimal inhibitory concentrations (MIC) values are shown in Table 4 according to the particular protocol used. Stock solutions of standard agents are stored at -70° and diluted the day of the assay.
(§5) Protocols 4 and 5 both utilize a standard microtiter broth dilution method described by Barry (Antimicrobic Susceptibilty Test: Principles and Practices, Lea and Febiger, 1976) but each uses a different medium. Protocol 4 uses Yeast Nitrogen Base broth pH 7.0 [Shadomy, S. Applied Microbiology, 17, 871-877 (1969)] while protocol 5 uses EMEM broth pH 7.4. The test organisms, CAND-1 and CAND-2 are diluted in the appropriate broth to achieve an inoculum of 1×10^4 CFUs/mL.
(§6) The compounds are tested from 100 μg/mL-0.4 μg/mL in 10-two fold serial dilutions and the assay is incubated at 37°, 5% CO2 for 24 hrs. MFC's are then determined as previously described but the plates are incubated under the conditions appropriate for Candida spp.

[2] = system: Candida albicans (CAND-2); test: Protocol 5: microtiter broth dilution MIC/MFC, EMEM broth pH 7.4; type: cell-based, C. albicans ATCC e10231; conditions: for MIC: Candida albicans, read-out: MIC CAND-2 of standards
Source text: as §1, §2, §3, §4, §5, §6

[3] = system: Candida albicans (CAND-1); test: as above; type: cell-based, Candida albicans ATCC 11651; conditions: for MIC: Candida albicans, read-out: MIC CAND-1 of standards
Source text: as §1, §2, §3, §4, §5, §6

[4] = system: Candida albicans (CAND-2); test: Protocol 4: microtiter broth dilution MIC, Yeast Nitrogen Base broth pH 7.0; type: cell-based, C. albicans ATCC e10231; conditions: for MIC: Candida albicans, read-out: MIC CAND-2 of standards
Source text: as §1, §2, §3, §4, §5, §6

[5] = system: Candida albicans (CAND-1); test: In vitro dilution MIC, protocol not given; type: cell-based, Candida albicans ATCC 11651; conditions: up to 100 μg/mL
Source text: as §1, §2, §3
as §5, with “The test organisms, CAND-1 and CAND-2 are diluted in the appropriate broth to achieve an inoculum of 1×10^4 CFUs/mL.” left out
as §6

[6] = system: Trichophyton rubrum (TRICH-1); test: Protocol 2: agar dilution MIC, Eagle's Minimum Essential Medium Agar (EMEM); type: cell-based, Trichophyton rubrum ATCC 18756; conditions: 168 h, Protocol 2, ambient temperature, seven days, read-out: MIC TRICH-1
Source text: as §1, §2, §3, §4
(§7) Protocols 1 & 2 use a modification of the agar dilution method (Barry, A. L., The Antimicrobic Susceptibility Test: Principles and Practices, Lea and Febiger, 1976) with either Sabouraud dextrose agar (protocol 1) or Eagle's Minimum Essential Medium Agar (EMEM) (protocol 2).
(§8) The compound is tested at four specific concentrations within the range of 100 μg/mL-0.04 μg/mL and is incorporated directly into 20 mL molten agar (50°). The plates are then inoculated with the spore suspensions of MICRO-1 and TRICH-1 at 5×10^6 spores/mL using a multi point inoculator. The plates are incubated at ambient temperature for seven days and the MIC values determined.

[7] = system: Candida albicans (CAND-2); test: In vitro dilution MIC, protocol not given; type: cell-based, C. albicans ATCC e10231; conditions: up to 100 μg/mL
Source text: as §1, §2, §3
as §5, with “The test organisms, CAND-1 and CAND-2 are diluted in the appropriate broth to achieve an inoculum of 1×10^4 CFUs/mL.” left out
as §6

[8] = system: Microsporum gypseum (MICRO-1); test: Protocol 2: agar dilution MIC, Eagle's Minimum Essential Medium Agar (EMEM); type: cell-based, Microsporum gypseum ATCC e9083; conditions: Nannizzia gypsea, 168 h; Protocol 2, ambient temperature, seven days; read-out: MIC MICRO-1
Source text: as §1, §2, §3, §4, §7, §8

[9] = Protocol 4, mean of five determinations ± standard deviation
[10] = Protocol 5, mean of five determinations ± standard deviation

MIC [1, 9] [µg/mL] | MIC [2, 10] [µg/mL] | MIC [3, 10] [µg/mL] | MIC [4, 9] [µg/mL] | Compound | MIC CAND-1 of standards [1, 9] [µg/mL] | MIC CAND-2 of standards [2, 10] [µg/mL] | MIC CAND-1 of standards [3, 10] [µg/mL] | MIC CAND-2 of standards [4, 9] [µg/mL] | also measured
0.15 ± 0.1 (≈ 0.282 µM) | 0.2 ± 0.04 (≈ 0.376 µM) | 0.3 ± 0.04 (≈ 0.565 µM) | 0.22 ± 0.04 (≈ 0.414 µM) | CC(=O)N1CCN(c2ccc(OCC3COC(Cn4ccnc4)(c4ccc(Cl)cc4Cl)O3)cc2)CC1 (stereo not drawn) [Ketoconazole] |  |  |  |  | 
 |  |  |  | CC1(C)SSSc2cn(-c3ccccc3)nc2S1 [Example 3, 4,4-Dimethyl-7-phenyl-1,2,3,5-pyrazolotetrathiepin] |  |  |  |  | MIC CAND-1 (in words) [5]: Inactive at 100 μg/mL; MIC [6]: 1 µg/mL (≈ 3.2 µM); MIC CAND-2 (in words) [7]: Inactive at 100 μg/mL; MIC [8]: 1 µg/mL (≈ 3.2 µM)
 |  |  |  | C[C@@H]1[C@H](O)[C@@H](C)/C=C/C=C/C=C/C=C/C=C/C=C/C=C/[C@H](O[C@@H]2O[C@H](C)[C@@H](O)[C@H](N)[C@@H]2O)C[C@@H]2O[C@](O)(C[C@@H](O)C[C@@H](O)[C@H](O)CC[C@@H](O)C[C@@H](O)CC(=O)O[C@H]1C)C[C@H](O)[C@H]2C(=O)O [Amphotericin B] | 0.6 ± 0.2 | 0.7 ± 0.3 | 0.5 ± 0.3 | 0.5 ± 0.3 | 
 |  |  |  | Clc1ccc(COC(Cn2ccnc2)c2ccc(Cl)cc2Cl)c(Cl)c1 (stereo not drawn) [Miconazole] |  |  |  |  | MIC [1]: 0.36 ± 0.12 µg/mL (≈ 0.865 µM); MIC [2]: 0.5 ± 0.4 µg/mL (≈ 1.2 µM); MIC [3]: 0.5 ± 0.4 µg/mL (≈ 1.2 µM); MIC [4]: 0.5 ± 0.2 µg/mL (≈ 1.2 µM)
 |  |  |  | C[C@@H]1[C@H](O)[C@@H](C)/C=C/C=C/CC/C=C/C=C/C=C/C=C/C(O[C@H]2O[C@H](C)[C@@H](O)[C@H](N)[C@@H]2O)CC2O[C@](O)(CC(O)C(O)CCC(O)CC(O)CC(O)CC(=O)O[C@H]1C)CC(O)C2C(=O)O (stereo partly drawn) [Nystatin] | 6.0 ± 2.0 | 4.5 ± 1.0 | 5.0 ± 0 | 5.0 ± 1.5 | 
0.7 ± 0.2 (≈ 5.42 µM) | 1.3 ± 0.4 (≈ 10.1 µM) | 1.1 ± 0.4 (≈ 8.52 µM) | 1.1 ± 0.4 (≈ 8.52 µM) | Nc1nc(=O)[nH]cc1F [5-Fluorocytosine] |  |  |  |  | 
